Test results published in patent US9399037B2, “Triazinone compounds for treating diseases resulting from infestation with parasitic protozoans” (Bayer Intellectual Property GmbH, priority 1999, dated 2016).
Where “and” joins values, the source holds several entries; their conditions need not be identical. Equal values may be shown once. Read-outs that look alike come from different tables or passages of the source.

Assays:
[1] = system: Neospora caninum; details: dogs; treatment with sulfadiazine and clindamycin together; cited from earlier work
[2] = system: Neospora caninum; details: experimentally infected mice, administered via the drinking water, cited from earlier work
[3] = system: Neospora caninum; assay: Testing substances on infected Neospora caninum cell cultures (VERO cell monolayer, microscopical assessment); type: cell-based; set-up: key: 0 = no effect; 1 = some effect; 2 = full action; T = cytotoxic; details: 4 days after beginning of treatment, 5 days post-infection
Description: Neospora caninum is an obligatory intracellular parasite. VERO cells (African green monkey kidney cells, ATCC No.: CCL 81 Vero) were used as an aid to cause the parasite to reproduce under conditions capable of standardization and definition. Vero cells were grown in the following medium: 87% […] (ICN, 12-602-54) 10% FCS (fetal calf serum, ICN, 29-101-49) 1% 200 mM L-glutamine (ICN, 15-801-13) 1% sodium bicarbonate (ICN, 16-883-49) 1% penicillin/streptomycin (ICN, 16-700-49). Noninfected cultures were maintained and passaged in 25 cm^2 (Falcon, B 769031) and 75 cm^2 (Falcon, B 769051) tissue culture flasks. Vero cells were grown at 37° C. in a 5% CO2 atmosphere in a CO2 incubator (Heraeus) until a cell monolayer was obtained.
The following Neospora caninum isolates were used for the infection of cell cultures: NC-1 (canine isolate DUBEY (1988) and NC Swe B-1/9th passage (bovine isolate; National Veterinary Institute Uppsala, Sweden). The infection materials used were infected cell cultures from the nitrogen storage (see above) or purified tachyzoites of infected cultures (see below).
Neospora caninum was isolated from infected VERO or ED monolayers under sterile conditions. First, infected cell cultures were detached from the flask bottom using a spatula (Tec No Mara, 3010) and, using a 23-gauge cannula (Luer 23 Gx1, 0.6×25 mm) drawn into a 10 ml disposable syringe. During this procedure, host cells and tissue cysts contained therein were destroyed mechanically. The cell suspension was subsequently centrifuged for 7 minutes at 1 500 rpm (Varifuge 3.0, Heraeus), the supernatant was discarded, and the sample pellet was resuspended in precisely 2.5 ml of physiological phosphate buffer (PBS: 1 mM PO4, 12 mM NaCl, 0.87 mM KCL, pH 7.4). The next isolation step was performed using a Sephadex column (PD-10™/Sephadex G-25 M, Pharmacia Biotech, 17-0851). The column was first equilibrated with 25 ml of PBS, the sample volume was applied in 2.5 ml of PBS, and elution was then effected with 5 ml of PBS. […]

[4] = system: Neospora caninum; assay: Anti-N. caninum total IgG in the serum by ELISA, prophylactically treated infected mice; type: in vivo
Description: (§1) Female Wt C57BL/6-mice, age at the time of treatment: 7½ weeks.
(§2) Neospora caninum tachyzoites were passaged through VERO cells, and isolated by column chromatography, and aliquots with concentrations of 2×10^6 parasites/100 μl were prepared in sterile PBS.
(§3) Pure toltrazuril active compound was made up as a stock solution with 50 mg/10 ml H2O+100 μl Cremophor. 0.5 mg of pure active compound were present Der application in 0.1 ml of this solution. In a mouse of 20 g, this corresponds to a use concentration of 25 mg/kg. The substances were administered perorally by gavage on 6 successive days, which corresponds to a total uptake of […].
(§4) Toltrazuril 2.5% formulated solution (100 ml solution contain: 2.50 g toltrazuril, 30.00 g triethanolamine, 80.70 g polyethylene glycol; the components are simply mixed): 6.25 ml of the 2.5% solution were diluted in 250 ml of water and administered to the mice on 6 successive days via the drinking water.
(§5) Four hours after the start of the prophylactic treatment, each mouse was infected with 2×10^6 parasite stages/100 μl sterile PBS.
(§6) 14 days post-infection, the test mice were sacrificed using CO2. They were numbered randomly to maintain a random sequence during evaluation (blind evaluation). To obtain serum, blood was taken from the myocardium. The brain was dissected carefully, and one half was stored at −80° C. for the PCR analysis. The remainder was fixed in 4% paraformaldehyde/PBS for immunohistological studies (IFAT).
Anti-N. caninum total immunoglobulin G (IgG) was determined by ELISA following the method of Eperon et al., 1999, Parasite Immunology 21:225-236. Treated groups were compared with an uninfected and an infected control group. The positive control mouse was inoculated with a crude extract of N. caninum tachyzoites and subsequently infected with 10^6 N. caninum stages. The parasite-specific IgG values were particularly high in this mouse.

[5] = system: Neospora caninum; assay: Neospora caninum-specific PCR on brain DNA of infected mice; type: in vivo; details: prophylactic treatment, pure active compound 25 mg/kg/day p.o.
Description: as §1, §2, §3, §4, §5
as §6, with “The remainder was fixed in 4% paraformaldehyde/PBS for immunohistological studies (IFAT).” left out

[6] = system: Neospora caninum; assay: Immunofluorescence test (IFAT) on brain sections of infected mice; type: in vivo; set-up: key: Score (−)=no tachyzoites; Score (+)=less than 10 tachyzoites; Score (++)=between 10 and 200 tachyzoites; Score (+++)=more than 200 parasites; details: brain sections of individual mice; 25 mg/kg/day p.o. on 6 successive days; day 14 p.i.
Description: as §1, §2, §3, §4, §5
14 days post-infection, the test mice were sacrificed using CO2. They were numbered randomly to maintain a random sequence during evaluation (blind evaluation). […]
The entire sections were studied for the assessment. Any stages of the parasite present were counted, and the following scores were used: […]

| Compound | success of treatment [1] | effectiveness of treatment ([2]; later start of the treatment) | effectiveness of treatment ([2]; start prior to infection, clinical symptoms prevented without parasitological recovery) | Efficacy against Neospora caninum in VERO cells (assessment of monolayer) ([3]; 10 ppm) | Efficacy against Neospora caninum in VERO cells (assessment of monolayer) ([3]; 25 ppm) | Efficacy against Neospora caninum in VERO cells (assessment of monolayer) ([3]; 50 ppm) | OD mean (anti Neospora IgG in the serum) ([4]; group mean, 7 mice, 25 mg/kg/day p.o. on 6 successive days, day 14 p.i.) | OD (anti Neospora IgG in the serum) ([4]; individual C57BL/6 mice, 25 mg/kg/day p.o. on 6 successive days from 4 h before infection, day 14 p.i., 25 mg/kg/day) | concentration of Neospora caninum-specific IgG antibodies compared with infected and untreated control groups ([4]; mice, pure active compound 25 mg/kg/day p.o.) | mice PCR-negative in the group [5] | IFAT [6] |
| --- | --- | --- | --- | --- | --- | --- | --- | --- | --- | --- | --- |
| Nc1ccc(S(=O)(=O)Nc2ncccn2)cc1 [sulfadiazine] | only has a chance of success when it starts very early | without success | only effective when the treatment was started prophylactically |  |  |  |  |  |  |  |  |
| Cc1cc(-n2c(=O)[nH]c(=O)n(C)c2=O)ccc1Oc1ccc(SC(F)(F)F)cc1 [Toltrazuril, toltrazuril] |  |  |  | 1 | 2 | 2 | 0.1689 | 0.338 and 0.271 and 0.056 and 0.066 and 0.18 and 0.103 and 0.168 | reduced concentration | 4/7 | − |
